# Tests used:
# MDA-MB-231/ATCC = experiment: NCI-60 growth inhibition, MDA-MB-231/ATCC; assay type: cell-based; details: Homo sapiens, Breast Cancer
# Text: (§1) Compound 4 had better potency than the lead compound 1 in 50 cancer cell lines. (better by 5 to 6-fold in leukemia, 2 to 17-fold in NSCLC, 2 to 6-fold in colon cancer, 2 to 5-fold in CNS cancer, 2 to 25-fold in melanoma, 2 to 5-fold in ovarian cancer, 2 to 9-fold in renal cancer, 2 to 5-fold in prostate cancer, and 2 to 6-fold in breast cancer compared to lead compound 1).
# M14 = experiment: NCI-60 growth inhibition, M14; assay type: cell-based; details: Homo sapiens, Melanoma
# Text: as §1
# KM12 = experiment: NCI-60 growth inhibition, KM12; assay type: cell-based; details: Homo sapiens, Colon Cancer
# Text: as §1
# SF-539 = experiment: NCI-60 growth inhibition, SF-539; assay type: cell-based; details: Homo sapiens, CNS Cancer
# Text: as §1
# SF-268 = experiment: NCI-60 growth inhibition, SF-268; assay type: cell-based; details: Homo sapiens, CNS Cancer
# Text: as §1
# SF-295 = experiment: NCI-60 growth inhibition, SF-295; assay type: cell-based; details: Homo sapiens, CNS Cancer
# Text: as §1
# MDA-MB-435 tumors = experiment: MDA-MB-435 xenograft model; assay type: in vivo, nude mice; details: 75 mg/kg i.p. 3 × a week
# Method: Compound 4 was selected for further evaluation in an in vivo xenograft mouse study in light of its nanomolar potency in vitro in the NCI-60 cancer cell line panel and its potent microtubule depolymerization activity. The in vivo effects of 4 were tested in the MDA-MB-435 xenograft model (Figure 5).
# MDA-MB-435 tumor fragments were implanted s.c. into the flanks of female nude mice. […] Compound 4 was dissolved in a 50:50 Cremophor EL/DMSO mixture and further dissolved in PBS for a final concentration of 10:10:80 Cremophor EL:DMSO:PBS (v/v). […] Tumor volumes and mouse weights were measured 2–3 times a week. A two-way ANOVA with Dunnett’s post-hoc tests including all treatment groups in the trial was used to determine significant differences in tumor volumes between drug-treated and untreated control groups on each measurement day. These animal studies were performed at the University of Texas Health Science Center in San Antonio in compliance with an approved Institutional Animal Care and Use protocol.
# MDA-MB-435 tumors were implanted into the flanks of nude mice and allowed to grow until they reached a volume of ~200 mm^3. […] Tumor volumes and mouse weights were measured 2–3 times a week. Statistical significance was evaluated by two-way ANOVA (time vs. drug) with Dunnett’s post-hoc tests. A statistically significant difference in tumor volume was detected on day 14 between mice treated with 4 (* p = 0.0384) and untreated control tumors.
# BT-549 = experiment: NCI-60 growth inhibition, BT-549; assay type: cell-based; details: Homo sapiens, Breast Cancer
# Text: as §1
# Bovine brain tubulin = experiment: Inhibition of purified tubulin assembly (turbidity); assay type: biochemical; details: 10 µM tubulin, 30 °C; read-out: Inhibition of Tubulin Assembly IC50 ± SD
# Method: Bovine brain tubulin was purified as described previously. The tubulin assembly assay has been described in detail. Briefly, 1.0 mg/mL of tubulin (10 µM) was preincubated for 15 min at 30 °C in 0.8 M monosodium glutamate (pH of 2 M stock solution adjusted to 6.6 with HCl), varying compound concentrations and 4% (v/v) DMSO as compound solvent. After the preincubation, the reaction mixtures were placed on ice and 0.4 mM GTP was added. The reaction mixtures were transferred to cuvettes at 0 °C in a recording spectrophotometer equipped with an electronic temperature controller. After baselines were established, the temperature was elevated over about 30 s to 30 °C, and changes in turbidity were monitored at 350 nm for 20 min. The compound concentration that caused a 50% reduction in increase in turbidity, interpolated from the values obtained with defined compound concentrations, was defined as the IC50 value. The assay to measure inhibition of [^3H]colchicine binding was described in detail previously. Briefly, 0.1 mg/mL (1.0 µM) tubulin was incubated at 37 °C with 5.0 µM [3H]colchicine and potential inhibitors at 5.0 µM. Incubation was for 10 min, at which point the reaction had reached 40–60% of the maximum colchicine that can be bound in reaction mixtures without inhibitor. The [^3H]colchicine was a product of PerkinElmer, USA. CA-4 was a generous gift of Dr. G. R. Pettit, Arizona State University.
# CCRF-CEM = experiment: NCI-60 growth inhibition, CCRF-CEM; assay type: cell-based; details: Homo sapiens, Leukemia
# Text: as §1
# HeLa WTβIII cells = experiment: SRB assay in βIII-tubulin expressing HeLa WTβIII cells; assay type: cell-based; details: Homo sapiens, read-out: IC50 ± SD in HeLa WTβ3
# Method: Compounds 4–8, 10, 12, and 13 were evaluated for their abilities to overcome βIII-tubulin mediated drug resistance using an isogenic HeLa cell line pair (Table 4). […] The Rr values (Table 4) were calculated by dividing the IC50 of the βIII-tubulin expressing line by the IC50 obtained in the parental HeLa cells.
# (§2) The antiproliferative and cytotoxic effects of the compounds in cancer cells were evaluated using the SRB assay as previously described. MDA-MB-435 cells were obtained from the Lombardi Cancer Center of Georgetown University (Washington, DC, USA). SK-OV-3 and HeLa cells were purchased from ATCC. Details about the generation of the SK-OV-3 MDR1-M6/6 and HeLa WTβIII cells were described previously. The IC50 values represent an average of three independent experiments, each conducted using triplicate points.
# (§3) HeLa, A-10, SK-OV-3, and SK-OV-3 MDR1-M6/6 cells were grown in Basal Medium Eagle (Sigma-Aldrich, St. Louis, MO, USA) supplemented with 10% FBS (Hyclone, GE Life Sciences, Logan, UT, USA) 1% GlutaMAX (Gibco, Life Technologies, Waltham, MA, USA) and 50 µg/mL gentamycin (Life Technologies, USA). HeLa WTβIII cells were grown in Dulbecco’s Modified Eagle Medium (Life Technologies) supplemented with 10% FBS and 50 µg/mL gentamycin. MDA-MB-435 cells were maintained in Improved Minimum Essential Medium (Life Technologies) supplemented with 10% FBS and 25 µg/mL gentamycin. All cells were grown at 37 °C in a humidified environment with 5% CO2.
# SK-OV-3 cells = experiment: SRB assay in SK-OV-3 cells; assay type: cell-based; details: Homo sapiens, read-out: IC50 ± SD in SK-OV-3 Cells
# Method: Comparison of the IC50 values in the parental SK-OV-3 and genetically manipulated SK-OV-3 MDR1-M6/6 cell line allows for the calculation of a relative resistance value, designated Rr. This value is calculated by dividing the IC50 value obtained in the Pgp-expressing SK-OV-3 MDR1-M6/6 cells by the IC50 obtained in the parental SK-OV-3 cells.
# as §2, §3
# NCI-H522 = experiment: NCI-60 growth inhibition, NCI-H522; assay type: cell-based; details: Homo sapiens, NSCLC
# Text: as §1
# HCT-116 = experiment: NCI-60 growth inhibition, HCT-116; assay type: cell-based; details: Homo sapiens, Colon Cancer
# Text: as §1
# SW-620 = experiment: NCI-60 growth inhibition, SW-620; assay type: cell-based; details: Homo sapiens, Colon Cancer
# Text: as §1
compound,measurement,setting,value
"COc1ccc(N(C)c2nc(N)nc3sc4c(c23)CCCC4)cc1 [Compound 4, N4-(4-methoxyphenyl)-N4-methyl-5,6,7,8-tetrahydrobenzo[4,5]thieno[2,3-d]pyrimidine-2,4-diamine]",GI50,MDA-MB-231/ATCC,10.9 nM
same,GI50,M14,4.32 nM
same,GI50,KM12,13.4 nM
same,GI50,SF-539,7.93 nM
same,GI50,SF-268,15.9 nM
same,GI50,SF-295,10.2 nM
same,Antitumor effects on MDA-MB-435 tumor volume vs control,MDA-MB-435 tumors; day 14,statistically significant antitumor effects
same,Weight loss,MDA-MB-435 tumors; nude mice,moderate weight loss
same,GI50,BT-549,17.5 nM
same,IC50,Bovine brain tubulin,820 ± 40 nM
same,GI50,CCRF-CEM,7.12 nM
same,IC50,HeLa WTβIII cells,10.6 ± 1.8 nM
same,IC50,SK-OV-3 cells,11.8 ± 1.1 nM
same,GI50,NCI-H522,6.87 nM
same,GI50,HCT-116,5.46 nM
same,GI50,SW-620,5.63 nM

# Reference: article PMC8747035, “Design, Synthesis, and Biological Evaluation of 5,6,7,8-Tetrahydrobenzo[4,5]thieno[2,3-d]pyrimidines as Microtubule Targeting Agents” (Molecules, 2022)
